Values quoted from earlier work, collected in patent US11752142B2, “Oral pharmaceutical compositions of dabigatran etexilate” (Breckenridge Pharmaceutical, Inc., priority 2012, dated 2023).
Structures can show the parent of a compound that is named as a salt. Where two headings read alike, the source gives them in different places.

Key:
[1] = not given; remark: listed apart in the source
[2] = not given; remark: listed apart in the source

For `CCCCCCOC(=O)NC(=N)c1ccc(NCc2nc3cc(C(=O)N(CCC(=O)OCC)c4ccccn4)ccc3n2C)cc1` [DEM, dabigatran etexilate mesylate], the “sensitivity to light irradiation” value (light irradiation) is listed as “not sensitive to light irradiation”, the stability (solid state) is listed as “stable in the solid state” and the aqueous solubility ([1]; acidic media) is listed as “rather high solubility”. For the same compound, the aqueous solubility ([1]; neutral and basic media) was “very poor solubility” and the BCS class ([1]; poor aqueous solubility but good membrane permeability) was “BCS Class II”.

For `[H]/N=C(/N)c1ccc(NCc2nc3cc(C(=O)N(CCC(=O)O)c4ccccn4)ccc3n2C)cc1` [dabigatran], the absolute bioavailability ([2]; dabigatran following oral administration of dabigatran etexilate) is listed as 3-7% and the elimination half life ([2]; following oral administration of dabigatran etexilate) is listed as 12 to 17 h.

For `CCCCCCOC(=O)NC(=N)c1ccc(NCc2nc3cc(C(=O)N(CCC(=O)OCC)c4ccccn4)ccc3n2C)cc1` [dabigatran etexilate, 3-[(2-{4-(hexyloxycarbonylamino-imino-methyl)-phenylamino]methyl}-1-methyl-1H-benzimidazol-5-carbonyl)-pyridin-2-yl-amino-propionic acid ethyl ester], the Tmax ([2]; absorption of the active) is listed as 45 minutes-1 hour.
